These are literature values, as cited in patent publication US20160088844A1 (priority 2013, published 2016).

SMILES strings stand for the structures.

This series concerns roots of plants; seeds of a variety of species. The settings on record: in vivo.

Consider `Cn1c(=O)c2c(ncn2C)n(C)c1=O` [caffeine], for which the “mitosis in the roots of plants” value is “inhibit mitosis” and the “seed germination in a variety of species” value is “inhibit seed germination”.
